Results published in US8664223B2, “Pyridine and pyrimidine derivatives as inhibitors of histone deacetylase” (Janssen Pharmaceutica N.V, priority 2006, dated 2014).
≈ marks a conversion by molar mass, not a printed value. Structures can show the parent of a compound that is named as a salt. Where two headings read alike, the source gives them in different places.

What was measured:
[1] = not given; remark: listed apart in the source
[2] = tested on: A2780 ovarian carcinoma cells; assay: Antiproliferative activity on A2780 cells (MTT); type: cell-based; settings: Homo sapiens, 96 h, four days of incubation, read-out: Cellular activity pIC50 C.2 (converted)
Description: Cellular activity of the compounds of formula (I) was determined on A2780 tumour cells using a colorimetric assay for cell toxicity or survival (Mosmann Tim, Journal of Immunological Methods 65: 55-63, 1983) (see example C.2).
All compounds tested were dissolved in DMSO and further dilutions were made in culture medium. Final DMSO concentrations never exceeded 0.1% (v/v) in cell proliferation assays. Controls contained A2780 cells and DMSO without compound and blanks contained DMSO but no cells. MTT was dissolved at 5 mg/ml in PBS. A glycine buffer comprised of 0.1 M glycine and 0.1 M NaCl buffered to pH 10.5 with NaOH (1N) was prepared (all reagents were from Merck).
The human A2780 ovarian carcinoma cells (a kind gift from Dr. T. C. Hamilton [Fox Chase Cancer Centre, Pennsylvania, USA]) were cultured in RPMI 1640 medium supplemented with 2 mM L-glutamine, 50 μg/ml gentamicin and 10% fetal calf serum. Cells were routinely kept as monolayer cultures at 37° C. in a humidified 5% CO2 atmosphere. Cells were passaged once a week using a trypsin/EDTA solution at a split ratio of 1:40. All media and supplements were obtained from Life Technologies. Cells were free of mycoplasma contamination as determined using the Gen-Probe Mycoplasma Tissue Culture kit (supplier: BioMérieux).
Cells were seeded in NUNC™ 96-well culture plates (Supplier: Life Technologies) and allowed to adhere to the plastic overnight. Densities used for plating were 1500 cells per well in a total volume of 200 μl medium. After cell adhesion to the plates, medium was changed and drugs and/or solvents were added to a final volume of 200 μl. Following four days of incubation, medium was replaced by 200 μl fresh medium and cell density and viability was assessed using an MTT-based assay. To each well, 25 μl MTT solution was added and the cells were further incubated for 2 hours at 37° C. The medium was then carefully aspirated and the blue MTT-formazan product was solubilized by addition of 25 μl glycine buffer followed by 100 μl of DMSO. […] Within an experiment, the results for each experimental condition are the mean of 3 replicate wells. For initial screening purposes, compounds were tested at a single fixed concentration of 10^−6 M. For active compounds, the experiments were repeated to establish full concentration-response curves. For each experiment, controls (containing no drug) and a blank incubation (containing no cells or drugs) were run in parallel. The blank value was subtracted from all control and sample values. For each sample, the mean value for cell growth (in absorbance units) was expressed as a percentage of the mean value for cell growth of the control. […] Herein the effects of test compounds are expressed as pIC50 (the negative log value of the IC50-value) (see Table F-2).

[3] = target: histone deacetylase (HeLa nuclear extracts); assay: In vitro assay for inhibition of histone deacetylase with fluorescent-labelled substrate (Fluor de Lys); type: biochemical; settings: HeLa nuclear extracts 60 μg/ml, 75 μM substrate
Text: The in vitro assay for inhibition of histone deacetylase (see example C.1) measures the inhibition of HDAC enzymatic activity obtained with the compounds of formula (I).
The HDAC Fluorescent Activity Assay/Drug Discovery Kit of Biomol (cat. No: AK-500-0001) was used. The HDAC Fluorescent Activity Assay is based on the Fluor de Lys (Fluorogenic Histone deAcetylase Lysyl) substrate and developer combination. The Fluor de Lys substrate, comprises an acetylated lysine side chain. Deacetylation of the substrate sensitizes the substrate so that, in the second step, treatment with the Fluor de Lys developer produces a fluorophore.
HeLa nuclear extracts (supplier: Biomol) were incubated at 60 μg/ml with 75 μM of substrate. The Fluor de Lys substrate was added in a buffer containing 25 mM Tris, 137 mM NaCl, 2.7 mM KCl and 1 mM MgCl2.6H2O at pH 7.4. After 30 min, 1 volume of the developer was added. The fluorophore was excited with 355 nm light and the emitted light (450 nm) was be detected on a fluorometric plate reader.
For each experiment, controls (containing HeLa nuclear extract and buffer), a blank incubation (containing buffer but no HeLa nuclear extract) and samples (containing compound dissolved in DMSO and further diluted in buffer and HeLa nuclear extract) were run in parallel. In first instance, compounds were tested at a concentration of 10^−5M. […] All sample were tested 4 times. In each test the blank value was subtracted from both the control and the sample values. The control sample represented 100% of substrate deacetylation. For each sample the fluorescence was expressed as a percentage of the mean value of the controls. […] Herein the effects of test compounds are expressed as pIC50 (the negative log value of the IC50-value) (see Table F-2).

[4] = Solubility/stability at pH 2.3 (chemiluminescent nitrogen detector); type: physicochemical; settings: pH 2.3, aqueous buffer; read-out: Solubility C.3.b. pH = 2.3
Description: The solubility of a compound measures the ability of a compound to stay in solution. In the first method, the ability of a compound to stay in aqueous solution upon dilution (see example C.3.a) is measured. DMSO-stock solutions are diluted with a single aqueous buffer solvent in different consecutive steps. In this method (C.3.a), mixtures are then scanned in the BD Gentest Solubility Scanner for the occurrence of precipitation. In the second method the solubility of a compound at different pH's can be measured with the use of a chemiluminescent nitrogen detector (see example C.3.b).
C.3.b. Solubility/Stability at pH 2.3
The solubility of a compound, at pH 2.3, can also be measured with the use of a chemiluminescent nitrogen detector (see Table F-2).

| SMILES | melting point [°C] | IC50 [2] [nM] | Enzymatic activity pIC50 C.1 [3] | also measured |
| --- | --- | --- | --- | --- |
| O=C(NO)c1cnc(N2CCN(CC(/C=C/c3ccccc3)N3C(=O)CCC3=O)CC2)nc1 (stereo not drawn) (as salt: trifluoroacetic acid salt) (hydrate or solvate) [Compound 3] | 148 |  |  |  |
| COc1cc(N)c(Cl)cc1C(=O)NC1CCN(CCCOc2ccc(F)cc2)CC1OC (stereo not drawn) [Cisapride] |  |  |  | % metabolism ([1]; human, 15 min, 5 μM): 45% |
| O=C(NO)c1cnc(N2CCN(CC(/C=C/c3ccccc3)N3C(=O)CCC3=O)CC2)nc1 (stereo not drawn) [Compound 3] |  | 7940 | 7.5 |  |
| CS(=O)(=O)NC(/C=C/c1ccc(F)cc1)CN1CCN(c2ccc(C(=O)NO)cn2)CC1 (stereo not drawn) [Compound 6] |  | 5010 | 7.0 |  |
| CCCO [propanol] |  |  |  | % metabolism ([1]; after 15 min incubation with active microsomes, compound 5 μM): 25% |

Further lines, with some results ahead:

| melting point [°C] | IC50 [2] [nM] | Enzymatic activity pIC50 C.1 [3] | SMILES | also measured |
| --- | --- | --- | --- | --- |
| 166 |  |  | CC(=O)NC(/C=C/c1ccccc1)CN1CCN(c2ncc(C(=O)NO)cn2)CC1 (stereo not drawn) (as salt: trifluoroacetic acid salt) (hydrate or solvate) [Compound 1] |  |
| 115 |  |  | O=C(NO)c1cnc(N2CCN(CC(/C=C/c3ccccc3)Oc3ccc(F)cc3)CC2)nc1 (stereo not drawn) (as salt: trifluoroacetic acid salt) (hydrate or solvate) [Compound 4] |  |
| 124 |  |  | NC(/C=C/c1ccccc1)CN1CCN(c2ncc(C(=O)NO)cn2)CC1 (stereo not drawn) (as salt: trifluoroacetic acid salt) [Compound 2] |  |
|  | 398 | 8.2 | CC(=O)NC(/C=C/c1ccccc1)CN1CCN(c2ncc(C(=O)NO)cn2)CC1 (stereo not drawn) [Compound 1] | solubility [4]: 2400 µg/mL (≈ 5.85 mM) |
|  | 79.4 | 8.2 | NC(/C=C/c1ccccc1)CN1CCN(c2ncc(C(=O)NO)cn2)CC1 (stereo not drawn) [Compound 2] | solubility [4]: 3100 µg/mL (≈ 8.41 mM) |
|  | 1580 | 7.3 | O=C(NO)c1cnc(N2CCN(CC(/C=C/c3ccccc3)Oc3ccc(F)cc3)CC2)nc1 (stereo not drawn) [Compound 4] |  |
